Blank lines part the entries; values can stand above or below the molecule they belong to.
Legend:
[1] = biological target: T1, human MICAL1 (Homo sapiens, UniProt Q8TDZ2); assay: cryo-EM structure, […] Å; type: binding; details: oxidized state, planar isoalloxazine ring; co-purified, non-covalent; deep cavity of MO domain, stacking with Trp400; autoinhibited full-length enzyme
T1 construct: full length M1-G1067, C-terminal 3C-His8 tag, baculovirus-infected Sf9 cells
T1 sequence (Q8TDZ2 1-1067): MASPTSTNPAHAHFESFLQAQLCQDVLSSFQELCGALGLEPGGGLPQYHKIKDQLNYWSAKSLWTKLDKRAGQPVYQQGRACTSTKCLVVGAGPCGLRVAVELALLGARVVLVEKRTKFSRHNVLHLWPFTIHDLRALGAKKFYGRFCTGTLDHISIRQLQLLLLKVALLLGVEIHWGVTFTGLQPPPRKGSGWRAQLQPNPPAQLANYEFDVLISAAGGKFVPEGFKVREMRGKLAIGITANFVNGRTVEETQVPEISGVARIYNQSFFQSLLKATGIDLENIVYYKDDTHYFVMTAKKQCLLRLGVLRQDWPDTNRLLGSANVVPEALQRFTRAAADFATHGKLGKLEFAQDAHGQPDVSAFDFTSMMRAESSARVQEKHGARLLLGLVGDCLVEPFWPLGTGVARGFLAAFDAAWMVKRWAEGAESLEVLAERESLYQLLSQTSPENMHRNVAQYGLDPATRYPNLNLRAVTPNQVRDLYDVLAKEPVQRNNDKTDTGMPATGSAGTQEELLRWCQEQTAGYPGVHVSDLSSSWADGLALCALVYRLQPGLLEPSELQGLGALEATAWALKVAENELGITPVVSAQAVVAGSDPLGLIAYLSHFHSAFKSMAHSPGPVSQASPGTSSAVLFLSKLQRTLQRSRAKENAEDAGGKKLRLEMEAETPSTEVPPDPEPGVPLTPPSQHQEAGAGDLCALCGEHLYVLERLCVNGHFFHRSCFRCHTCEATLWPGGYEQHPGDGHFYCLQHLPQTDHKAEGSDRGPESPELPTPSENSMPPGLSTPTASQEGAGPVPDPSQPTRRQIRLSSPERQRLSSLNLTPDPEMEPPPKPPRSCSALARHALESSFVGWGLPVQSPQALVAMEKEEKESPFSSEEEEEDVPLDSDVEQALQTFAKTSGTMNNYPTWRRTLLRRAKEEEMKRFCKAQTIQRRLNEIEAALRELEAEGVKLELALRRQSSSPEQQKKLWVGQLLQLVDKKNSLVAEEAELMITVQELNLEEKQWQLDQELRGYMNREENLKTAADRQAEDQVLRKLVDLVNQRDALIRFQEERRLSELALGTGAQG

[2] = biological target: T2, human MICAL1^ΔCC (residues M1-A917) (human, UniProt Q8TDZ2 1-917); assay: BLI; biotinylated CC domain immobilised (8.8 µg/ml) on Octet SAX biosensors, MO or MICAL1^ΔCC as analyte; 20 mM HEPES pH 7.4, 150 mM NaCl, 2 mM DTT, 2 mM MgCl2, 0.05% Tween 20, 20 °C; duplicates; details: both partners purified
T2 construct: human MICAL1 lacking the CC domain, residues M1-A917 (MO, L1, CH, L2, LIM, L3); also called MICAL^ΔCC; source: baculovirus-infected Sf9 cells, purified (HisTrap FF, Superdex 200)
T2 sequence (looked up): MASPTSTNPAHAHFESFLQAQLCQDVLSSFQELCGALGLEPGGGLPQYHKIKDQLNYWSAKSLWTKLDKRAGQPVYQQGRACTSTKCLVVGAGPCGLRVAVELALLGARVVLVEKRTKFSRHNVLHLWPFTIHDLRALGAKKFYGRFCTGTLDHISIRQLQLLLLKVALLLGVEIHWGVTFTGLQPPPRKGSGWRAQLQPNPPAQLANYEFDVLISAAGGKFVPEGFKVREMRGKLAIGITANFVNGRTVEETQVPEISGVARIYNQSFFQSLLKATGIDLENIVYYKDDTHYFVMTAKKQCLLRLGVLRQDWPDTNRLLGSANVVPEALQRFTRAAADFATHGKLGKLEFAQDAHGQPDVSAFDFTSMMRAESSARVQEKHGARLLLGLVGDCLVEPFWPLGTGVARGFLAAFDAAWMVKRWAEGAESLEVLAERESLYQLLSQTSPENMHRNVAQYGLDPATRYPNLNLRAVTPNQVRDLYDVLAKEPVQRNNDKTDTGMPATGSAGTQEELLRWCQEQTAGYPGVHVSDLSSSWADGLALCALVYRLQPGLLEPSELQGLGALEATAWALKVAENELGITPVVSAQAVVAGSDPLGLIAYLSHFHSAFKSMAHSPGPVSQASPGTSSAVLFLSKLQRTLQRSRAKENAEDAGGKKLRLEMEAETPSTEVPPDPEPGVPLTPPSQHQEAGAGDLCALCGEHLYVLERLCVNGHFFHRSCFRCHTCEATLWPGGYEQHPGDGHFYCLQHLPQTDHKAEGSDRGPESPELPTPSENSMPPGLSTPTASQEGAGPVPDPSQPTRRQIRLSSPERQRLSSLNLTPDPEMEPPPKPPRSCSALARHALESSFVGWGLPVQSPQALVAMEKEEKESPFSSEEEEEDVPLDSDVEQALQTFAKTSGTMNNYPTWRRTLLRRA

Molecule: Cc1cc2nc3c(=O)[nH]c(=O)nc-3n(C[C@H](O)[C@H](O)[C@H](O)COP(=O)(O)OP(=O)(O)OC[C@H]3O[C@@H](n4cnc5c(N)ncnc54)[C@H](O)[C@@H]3O)c2cc1C [FAD]
cryo-EM structure, 3.1 Å [1]: A deep cavity located between these subdomains is partially occupied by the FAD cofactor

Kd [2]: 0.58 ± 0.17 µM
B1: biotinylated human MICAL1^CC (residues K918-G1067) (domain or fragment, UniProt Q8TDZ2 918-1067, looked up)
chain: KEEEMKRFCKAQTIQRRLNEIEAALRELEAEGVKLELALRRQSSSPEQQKKLWVGQLLQLVDKKNSLVAEEAELMITVQELNLEEKQWQLDQELRGYMNREENLKTAADRQAEDQVLRKLVDLVNQRDALIRFQEERRLSELALGTGAQG
modifications: biotin on the Avi tag (biotinylated in vivo)
notes: human MICAL1 coiled-coil (CC) domain, residues K918-G1067; The BLI construct; also called CC domain; coiled-coil domain; source: E. coli BL21(DE3)BirA, biotinylated in vivo, purified (HisTrap Talon, Superdex 200); not shown: Avi tag, C-terminal, kept
